Data published in patent US8487090B2, “Water solution of 20(R)-ginsenoside Rg3 pharmaceutical composition and process thereof” (Dalian Fusheng Natural Medicine Development Co., Ltd., priority 2006, dated 2013).
Where two headings read alike, the source gives them in different places. Marks after values point to notes of the source that are not given here.

Columns and labels:
[1] = cited from earlier work
[2] = tested on: mouse liver cancer model (Heps); test: Chemotherapy efficacy potentiation bioassay, tumor weight; format: in vivo
Procedure: Take strongly growing tumor cells under sterile condition, and prepare it into a cell suspension with a density of about 1˜2×10^7 cells/ml by a homogenate method. Inoculate 0.2 ml/mouse of the cell suspension subcutaneously into the armpit of the axillary host. Administrate the test drug next day according to the experimental design protocol. Euthanize each group animal after ˜3 weeks and remove the tumor from mice and weigh it. Calculate the tumor inhibition percentage by the following formula: Tumor inhibition percentage (%)=[(mean tumor weight of control group−mean tumor weight of treatment group)/mean tumor weight of control group]×100% 5.2.2 Caudal Vein Inoculation Model

[3] = Chemotherapy toxicity attenuation bioassay, blood counts; format: in vivo, mouse; conditions: Heps bearing mice
[4] = tested on: Human Gastric Cancer MGC Model; test: Stomach in situ inoculation model, survival; format: in vivo, nude mice; conditions: 30 mg/kg/d ip × 7 qd
Procedure: (§1) Take intravenous administration, twice per day. For mice models inoculated with human tumor models and cells, continue injection for seven days; for mice models inoculated with mouse tumor cells, continue injection for five days.
(§2) Positive controls: CTX, 30 mg/kg; MMC, 2 mg/kg; 5Fu, 30 mg/kg; intraperitoneal or intravenous injection, once daily, continues for 7 days.
Take strongly growing in-vivo 2nd-generation MGC stomach cancer (cells) under sterile condition, and prepare it into a cell suspension with a density of 2×10^7 cells/ml by a homogenate method. Inject 0.05 ml of the cell suspension into the muscular layer of greater curvature of stomach of the nude mice via a surgery operation. Administrate the above mice with test drug next day according to the experimental design protocol, and calculate the life extension percentage of the tumor bearing host: Life extension percentage (%)=(mean survival days of treatment group/mean survival days of control)×100% 5.1.2 Liver In Situ Inoculation Model

[5] = tested on: Mouse Melanoma B16 Model; test: Caudal vein inoculation model, lung metastatic colonies; format: in vivo, C57BL/6 mouse
Procedure: as §1, §2
(§3) Mouse B16 melanoma cells in logarithmic growth phase are taken out under sterile condition, and a cell suspension with a density of about 2.5×10^5 cells/ml is prepared. Inoculate 0.2 ml/mouse of cell suspension into caudal vein of C57BL/6 mouse. Administrate the test drug next day according to the experimental design protocol, euthanize the animal after ˜3 weeks and remove the lungs from mice and count the metastatic colony in the lungs of each mouse. Calculate the tumor inhibition percentage based on the group mean colony by the following formula: Tumor inhibition percentage (%)=[(mean colony of control group−mean colony of treatment group)/mean colony of control group]×100% 5.3 Antineoplastic Toxicity Attenuation Bioassay

[6] = tested on: Human Liver Cancer QGY Model; test: Liver in situ inoculation model, survival; format: in vivo, nude mice; conditions: 30 mg/kg/d ip × 7 qd
Procedure: as §1, §2

[7] = tested on: Human Intestine Cancer LOVO Model; test: Efficacy bioassay on intestine cancer model, survival; format: in vivo, nude mice; conditions: 30 mg/kg/d ip × 7 qd
From the text: Human intestine cancer LOVO model, human stomach cancer MGC model, and human liver cancer QGY model, all tumor strains are in vivo subcultured for more than 2nd generation. Mouse melanoma B16 cell are subcultured and maintained by Pharmacology Department of Shanghai Institute of Pharmaceutical Industry.
as §1, §2

[8] = format: in vivo, C57BL/6 mouse; conditions: for Body Weight of Animals (g) End: Table 5
Procedure: as §3

CC(C)=CCC[C@](C)(O)[C@H]1CC[C@]2(C)[C@@H]1[C@H](O)C[C@@H]1[C@@]3(C)CC[C@H](O[C@@H]4O[C@H](CO)[C@@H](O)[C@H](O)[C@H]4O[C@@H]4O[C@H](CO)[C@@H](O)[C@H](O)[C@H]4O)C(C)(C)[C@@H]3CC[C@]12C [20(R)-ginsenoside Rg3]
solubility in water [1]: insoluble in water

CC(C)=CCC[C@](C)(O)[C@H]1CC[C@]2(C)[C@@H]1[C@H](O)C[C@@H]1[C@@]3(C)CC[C@H](O[C@@H]4O[C@H](CO)[C@@H](O)[C@H](O)[C@H]4O[C@@H]4O[C@H](CO)[C@@H](O)[C@H](O)[C@H]4O)C(C)(C)[C@@H]3CC[C@]12C [20(S)-ginsenoside Rg3]
solubility in water [1]: easily dissolvable in water

O=P1(N(CCCl)CCCl)NCCCO1 (stereo not shown) [CTX, Cyclophosphamide]
Mean Tumor weight (g, mean ± SD) ([2]; 10 × 3 mg/kg/d): 0.89 ± 0.29 g
Tumor Inhibition Percentage (%) ([2]; 10 × 3 mg/kg/d): 56.52%
Hb ([3]; 10 × 3 mg/kg/d): 82 ± 8.4 g/L
RBC 10^12/L ([3]; 10 × 3 mg/kg/d): 2.8 ± 0.3** 10^12/L
WBC (10^9/L) ([3]; 10 × 3 mg/kg/d): 3.2 ± 0.5** 10^9/L
Life Extension Percentage T/C × % [4]: 181.02%
Mean Survival Time (d) mean ± SD [4]: 41.20 ± 3.8 days
Antimetastatic Percentage % ([5]; Table 2, 100 mg/kg/d ip × 2 qd): 92.41%
Lung Colony (number) mean ± SD ([5]; Table 2, 100 mg/kg/d ip × 2 qd): 3.5 ± 3.7 number
Antimetastatic Percentage % ([5]; Table 5, 15 mg/kg/d ip × 7 qd): 48.11%
Lung Colony (number) mean ± SD ([5]; Table 5, 15 mg/kg/d ip × 7 qd): 26.1 ± 5.2 number
Antimetastatic Percentage % ([5]; Table 5, 30 mg/kg/d ip × 7 qd): 93.44%
Lung Colony (number) mean ± SD ([5]; Table 5, 30 mg/kg/d ip × 7 qd): 3.30 ± 2.6 number
Life Extension Percentage T/C × % [6]: 157.53%
Mean Survival Time (d) mean ± SD [6]: 34.50 ± 4.0 days
Life Extension Percentage T/C × % [7]: 214.71%
Mean Survival Time (d) mean ± SD [7]: 29.20 ± 4.8 days
Body Weight of Animals (g) end ([8]; Table 2, 100 mg/kg/d ip × 2 qd): 19.8/22.6 g
Body Weight of Animals (g) End ([8]; 15 mg/kg/d ip × 7 qd): 20.2/24.7 g
Body Weight of Animals (g) End ([8]; 30 mg/kg/d ip × 7 qd): 19.9/22.6 g

O=c1[nH]c(=O)n([C@H]2C[C@H](O)[C@@H](CO)O2)cc1F [Example 5Fu, 5-Fluorodeoxyuridine]
Mean Tumor weight (g, mean ± SD) ([2]; 25 × 3 mg/kg/d): 1.08 ± 0.34 g
Tumor Inhibition Percentage (%) ([2]; 25 × 3 mg/kg/d): 41.30%
Hb ([3]; 25 × 3 mg/kg/d): 90 ± 13.0 g/L
RBC 10^12/L ([3]; 25 × 3 mg/kg/d): 3.1 ± 0.4 10^12/L
WBC (10^9/L) ([3]; 25 × 3 mg/kg/d): 3.9 ± 0.3** 10^9/L

CN(Cc1cnc2nc(N)nc(N)c2n1)c1ccc(C(=O)N[C@@H](CCC(=O)O)C(=O)O)cc1 [MTX]
Mean Tumor weight (g, mean ± SD) ([2]; 5 × 3 mg/kg/d): 0.27 ± 0.01 g
Tumor Inhibition Percentage (%) ([2]; 5 × 3 mg/kg/d): 85.32%
Hb ([3]; 5 × 3 mg/kg/d): 51 ± 1.0 g/L
RBC 10^12/L ([3]; 5 × 3 mg/kg/d): 1.8 ± 0.1** 10^12/L
WBC (10^9/L) ([3]; 5 × 3 mg/kg/d): 1.6 ± 0.1** 10^9/L

N.N.[Cl][Pt][Cl] [PDD]
Mean Tumor weight (g, mean ± SD) ([2]; 1 × 3 mg/kg/d): 1.09 ± 0.30 g
Tumor Inhibition Percentage (%) ([2]; 1 × 3 mg/kg/d): 40.76%
